In article PMC9323955, “Synthesis and Evaluation of Small Molecule Drug Conjugates Harnessing Thioester-Linked Maytansinoids” (Pharmaceutics, 2022):

How the values were obtained:
[1] = PS SPR binding assay (Biacore T200, L1 chip); conditions: DOPC/DOPS (3:1, v/v) liposomes on L1 chip, 25 °C
Procedure: Phospholipids, 1,2-dioleoyl-sn-glycero-3-phosphocholine (DOPC) and 1,2-dioleoyl-sn-glycero-3-[phosphate-L-serine] (DOPS) were obtained as chloroform solutions from Avanti Polar Lipids (Alabaster, AL, USA). These stock solutions were mixed in the specified proportions. A 0.4 mL aliquot of the lipid solution at a 10 mg/mL concentration was added to a round bottom flask and evaporated under a stream of N2 to provide a thin lipid film. The lipid films were rehydrated in PBS buffer for at least 1 h at room temperature. The resulting suspension was extruded through a 100 nm polycarbonate filter using an Avanti MiniExtruder according to the manufacturer’s instructions. Zeta potential (ZP) and liposome size distribution were recorded by dynamic light scattering (DLS) and microelectrophoresis using a Zetasizer Nano ZS instrument. The binding kinetics between conjugates and liposomes were recorded at 25 °C using a Biacore T200 biosensor equipped with an L1 sensor chip (GE Healthcare, Chicago, IL, USA). The new sensor chip was pretreated with running buffer (5% DMSO in phosphate buffered saline (PBS) at a pH of 7.4) and two consecutive 30 s pulses of 2:3 v/v 50 mM HCl/isopropanol at a flow rate of 30 μL/min. New liposome capture plates were prepared for each binding cycle. In PBS buffer, liposomes are diluted to 0.5–1 mM and captured to saturation in isolated flow cells at 2–5 μL/min (30–150 s). […]

[2] = test system: HCC1806 triple-negative breast cancer cells; assay: MTS cell viability assay (72 h); assay type: cell-based, human; conditions: Homo sapiens, HCC1806; 72 h incubation, MTS; read-out: IC50, cytotoxicity against HCC1806 cells
Procedure: HCC1806 cells were grown in RPMI 1640 medium, and MTS assays were performed to check cell viability. Cells (2500–3000 cells/well) were grown in flat-bottomed 96-well plates for 24 h, and then serial dilutions of the compound were added, and cells were allowed to incubate for a further 72 h. At the end of the 72-h incubation period, the medium was removed, and 100 μL of a solution including a mixture of MTS and PMS was added. The cells were incubated for 1.5 h at 37 °C in a humidified incubator with 5% CO2 to allow viable cells to convert tetrazolium salts to formazan. Conversion to formazan was measured by absorbance (490 nm) using a BioTek PowerWave-X absorbance microplate meter. The data collected were normalized using a DMSO-treated control (100% viability) and a background control (0% viability) to verify growth inhibition.

[3] = test system: HCC1806 human triple-negative breast cancer tumors; assay: HCC1806 xenograft tumor efficacy; assay type: in vivo, female nude mice; conditions: 0.3 mg/kg i.v. twice weekly for 2 weeks
Procedure: Cancer cells suspended in RPMI 1640 medium (11835-030, Thermo Fisher Scientific, Waltham, MA, USA) were mixed with Matrigel™ (356237, BD Biosciences, Franklin Lakes, NJ, USA) in a 1:1 ratio. Human triple-negative breast cancer HCC1806 (1 × 10^6 cells) cells were inoculated subcutaneously into the left flank of 6-week-old female nude mice (BioLASCO Taiwan, Taipei, Taiwan) using a 1 mL syringe with a 24G needle (AN-2425R, Terumo Medical Corp., Tokyo, Japan). Tumor dimensions were measured twice weekly using electronic calipers (FOW54-200-777, PRO-MAX), and the volume of tumor grown subcutaneously (mm^3) was calculated by the formula Volume = (length × width^2)/2. A combination of 10% DMA/20% Cremophor EL/70% 5% dextrose injection (D5W) was formulated to treat HCC1806 xenograft tumors. Mice with HCC1806 tumors were grouped and administered the indicated dosing regimen of 1 mg/kg for the conjugate and 0.3 mg/kg for the cytotoxic payloads DM1 and DM4 twice-weekly (day 1 and day 4) for 2 weeks when the mean tumor volume was approximately 200–250 mm^3 or 850–900 mm^3 (large tumors). The conjugate dose of 2 mg/kg was administered weekly for the large tumor study. The body weight and tumor volume of mice were measured twice weekly. In addition, a previously reported oncogene-induced, sorafenib-resistant HCC mouse model was used in the current study to examine the antitumor activities of synthesized compounds. Briefly, plasmids including transposase (pCMV(CAT)T7-SB100), human Akt1, and luciferase (pKT2/CLP-AKT-2A-OVA-HBc-HBs-LUC) and the N-Ras V12 mutant (pT/Caggs-NRASV12) were hydrodynamically injected (HDI) and the liver was monitored for the appearance of HCC. HCC mice with a total flux of more than 1 × 10^9 photons/s from IVIS imaging were used as treatment conjugates. The indicated conjugate was administered intravenously at 1 mg/kg 3 times per week over 2 weeks. IVIS imaging was repeatedly performed to follow tumor progression, and tumor tissue from treated HCC mice was collected for histological examination and RNA extraction after administration.

[4] = Plasma stability, 24 h incubation with plasma (HPLC); assay type: in vitro ADME
Procedure: Zn8_DM1: 0H VS. 24H in plasma.
Zn10_DM4: 0H VS. 24H in plasma.
Supporting Figure S1. Incubation of Linker-drug 3 and 4, conjugates Zn8_DM1 and
Zn10_DM4, DM1 and DM4 with plasma for 24 hrs. HPLC condition is listed below. […]

COc1cc2cc(c1Cl)N(C)C(=O)C[C@H](OC(=O)[C@H](C)N(C)C(=O)CCS)[C@]1(C)O[C@H]1[C@H](C)[C@@H]1C[C@@](O)(NC(=O)O1)[C@H](OC)/C=C/C=C(\C)C2 [DM1, (14S,16S,32R,33S,2R,4S,10E,12E,14R)-86-chloro-14-hydroxy-85,14-dimethoxy-33,2,7,10-tetramethyl-12,6-dioxo-7-aza-1(6,4)-oxazinana-3(2,3)-oxirana-8(1,3)-benzenacyclotetradecaphane-10,12-dien-4-yl N-(3-mercaptopropanoyl)-N-methyl-D-alaninate, reference compound]
association with PS-coated liposomes (SPR) [1]: did not show association properties | IC50 [2]: 21 nM

COc1cc2cc(c1Cl)N(C)C(=O)CC(OC(=O)C(C)N(C)C(=O)CCC(C)(C)S)C1(C)OC1C(C)C1CC(O)(NC(=O)O1)C(OC)C=CC=C(C)C2 [DM4, (14R,16R,33R,2S,4S,10E,12Z,14S)-86-chloro-14-hydroxy-85,14-dimethoxy-33,2,7,10-tetramethyl-12,6-dioxo-7-aza-1(6,4)-oxazinana-3(2,3)-oxirana-8(1,3)-benzenacyclotetradecaphane-10,12-dien-4-yl N-(4-mercapto-4-methylpentanoyl)-N-methyl-D-alaninate, reference compound]
IC50 [2]: 7 nM | anti-HCC1806 tumor growth activity of free payload [3]: marginal improvement in its antitumor activity

COc1cc2cc(c1Cl)N(C)C(=O)C[C@H](OC(=O)[C@H](C)N(C)C(=O)CCSC(=O)c1ccc(CN(CCOCCOCCNC(=O)OC(C)(C)C)C(=O)C3(c4ccc(Cl)cc4)CCCCC3)cc1)[C@]1(C)O[C@H]1[C@H](C)[C@@H]1C[C@@](O)(NC(=O)O1)[C@H](OC)/C=C/C=C(\C)C2 [compound 3, (14R,16R,33R,2S,4S,10E,12Z,14S)-86-Chloro-14-hydroxy-85,14-dimethoxy-33,2,7,10-tetramethyl-12,6-dioxo-7-aza-1(6,4)-oxazinana-3(2,3)-oxirana-8(1,3)-benzenacyclotetradecaphane-10,12-dien-4-yl N-(3-((4-(2-(1-(4-chlorophenyl)cyclohexane-1-carbonyl)-14,14-dimethyl-12-oxo-5,8,13-trioxa-2,11-diazapentadecyl)benzoyl)thio)propanoyl)-N-methyl-L-alaninate]
cleavage of the maytansinoid after incubation with plasma [4]: No cleavage

COc1cc2cc(c1Cl)N(C)C(=O)CC(OC(=O)C(C)N(C)C(=O)CCC(C)(C)SC(=O)c1ccc(CN(CCOCCOCCNC(=O)OC(C)(C)C)C(=O)C3(c4ccc(Cl)cc4)CCCCC3)cc1)C1(C)OC1C(C)C1CC(O)(NC(=O)O1)C(OC)C=CC=C(C)C2 [compound 4, (14R,16R,33R,2S,4S,10E,12Z,14S)-86-Chloro-14-hydroxy-85,14-dimethoxy-33,2,7,10-tetramethyl-12,6-dioxo-7-aza-1(6,4)-oxazinana-3(2,3)-oxirana-8(1,3)-benzenacyclotetradecaphane-10,12-dien-4-yl N-(4-((4-(2-(1-(4-chlorophenyl)cyclohexane-1-carbonyl)-14,14-dimethyl-12-oxo-5,8,13-trioxa-2,11-diazapentadecyl)benzoyl)thio)-4-methylpentanoyl)-N-methyl-D-alaninate]
cleavage of the maytansinoid after incubation with plasma [4]: No cleavage
